Test results reported in US11466020B2, “Compounds and compositions for inhibition and elimination of Zika infection and uses for same” (Cornell University, priority 2017, dated 2022).
Structures can show the parent of a compound that is named as a salt.

Key:
ZIKV (FSS13025 strain) = experiment: qRT-PCR of total and (-) strand vRNA in hNPCs treated 48 h post-infection (FSS13025); format: cell-based, Zika virus; conditions: treatment at 48 h post-infection, 25 μM, additional 3 days
Procedure: (A and B) Inhibitory curve and IC50 of AQ were calculated based on the infection rate (A) and normalized cell viability (B) (n=6). (C and D) Immunocytochemistry analysis (C) and quantification of infection rate and total cell number (D) of hNPCs after ZIKV infection treated with 15 μM AQ or DMSO or mock infection (n=3). Cells were fixed and stained for ZIKV E and with DAPI. Scale bars, 100 μm. p values were calculated by unpaired two-tailed Student's t-test. *p<0.05, and ***p<0.001. (E) qRT-PCR analysis of total and replicating (−) strand of ZIKV (MR 766 strain) vRNA level in hNPCs from two additional donors. hNPCs from different donors were treated with 25 μM HH at 24 h post-infection. (F) The expression dynamics of ZIKV vRNA (FSS13025 strain) in hNPCs. qRT-PCR analysis to quantify the total and replicating (−) strand ZIKV vRNA levels in hNPCs at different time points post-infection. […] (G) qRT-PCR analysis of hNPCs that were treated with 25 μM HH or DMSO at 48 h post-ZIKV (FSS13025 strain) infection and maintained for additional 3 days. p values were calculated by unpaired two-tailed Student's t-test. *p<0.05, **p<0.01 and ***p<0.001, unless otherwise stated. […]
RNA Extraction and qRT-PCR. […] ZIKV vRNA levels were calculated using a standard curve generated using serial 10-fold dilutions of ZIKV vRNA.

ZIKV MR766 virus strain = experiment: Prophylactic treatment of ZIKV infected SCID-Beige mice; format: in vivo; conditions: AQ-treated ZIKV infected mice

Row | Compound | total and replicating (-) strand ZIKV vRNAs in hNPCs (FSS13025) (ZIKV (FSS13025 strain)) | ZIKV infection of adult cortex (immunohistochemistry) (ZIKV MR766 virus strain) | ZIKV infection of adult hippocampus (immunohistochemistry) (ZIKV MR766 virus strain) | ZIKV infection of adult striatum (immunohistochemistry) (ZIKV MR766 virus strain)
1 | CN1CCC2=C[C@H](O)[C@H]3OC(=O)c4cc5c(cc4[C@H]3[C@@H]21)OCO5 [HH, hippeastrine hydrobromide] | completely suppressed |  |  | 
2 | CCN(CC)Cc1cc(Nc2ccnc3cc(Cl)ccc23)ccc1O [AQ, amodiaquine dihydrochloride dihydrate] |  | suppresses infection in adult cortex | suppresses infection in adult hippocampus | suppresses infection in adult striatum
